# What was measured:
# [1] = tested on: Toxoplasma gondii BK strain; experiment: T. gondii tachyzoite intracellular proliferation in VERO host cells ([3H]uracil incorporation); assay type: cell-based; conditions: VERO host cells; for activity at 0.9 µg/mL / activity at 1.8 µg/mL / activity at 3.9 µg/mL / activity at 7.8 µg/mL / activity at 15.6 µg/mL / activity at 31.2 µg/mL / activity at 62.5 µg/mL / activity at 125 µg/mL / IC50: Toxoplasma gondii; for IC50 / IC50 (50% inhibition of T. gondii proliferation in vitro): GraphPad Prism curves; for IC50: read-out: IC50 (50% inhibition of T. gondii proliferation in vitro)
# Description: (§1) The epithelial cell line VERO (ATCC-Catalog No. CCL-81^TM), derived from the kidney of the African green monkey, Cercopithecus aethiops and fibroblast cell line L-929 (ATCC-Catalog No. CCL-1^TM), derived from Mus musculus (http://www.atcc.org) were grown in Iscoves’s Modified Dulbecco’s Medium (IMDM) supplemented with 10% (v/v) fetal bovine serum (FBS), plus 2 mM L-glutamine, 100 U/ml penicillin, 100.00 µg/ml streptomycin, 5 × 10^−5 M 2-mercaptoethanol and maintained at 37 °C in a 10% CO2 atmosphere. Subcultures were performed via enzymatic cell dissociation in 0.25% trypsin. After dissociation, the cells were placed in culture medium at 4 °C with 10% FBS to inhibit the action of trypsin. The isolated cells were centrifuged for 10 min at 1000×g at 4 °C, and the cells were grown in new bottles. This procedure was repeated when cells reached a confluence of ~90%. All commercial reactants and solvents were purchased from either Sigma-Aldrich Laborchemikalien GmbH (Dzitko et al. [2014]).
# (§2) Suspensions of the compounds 4a–l were freshly prepared (5 mg/ml DMSO) before the cells were exposed, and diluted to appropriate concentrations; 0.9, 1.8, 3.9, 7.8, 15.6, 31.2, 62.5, and 125.00 μg/ml with the culture medium. Cells treated with 2.5% DMSO-solvent served as a control in each experiment.
# Stock solutions of the Sulfadiazine (100 mg/ml 1 N NaOH; Catalog No. S8626) was freshly prepared before each experiment, and diluted to appropriate concentrations: 5.00, 25.00, 50.00, 125.00, 250.00, 500.00, 1250.00, and 2500.00 μg/ml, respectively in IMDM complete medium. All commercial reactants and solvents were purchased from either Sigma-Aldrich Laborchemikalien GmbH.
# Tachyzoites of T. gondii, BK strain, were maintained in female C57BL/6 (H-2^b) and BALB/c (H-2^d) mice (with genetically determined high and low susceptibility, respectively to Toxoplasma infection) via serial intraperitoneal inoculation of 10^5–10^6 parasites per mouse in phosphate-buffered saline (PBS). After 48 to 96 h, parasites were harvested via peritoneal lavage using PBS, pH 7.2, and centrifuged at 200×g for 5 min to remove blood cells and cell debris. The supernatant containing tachyzoites was collected and centrifuged again at 2000×g for 15 min. The final pellet was resuspended in IMDM, quantified in a Burker’s chamber, and used in experimental assays. Inbred mice were kept under standard laboratory conventional conditions. All experimental procedures were conducted according to guidelines of the 9. Local Ethics Commission for Experiments on Animals in Lodz.
# VERO, (2 × 10^4 cells/100 µl/well) were grown in complete medium (IMDM) on 96-well plates. After 24 h incubation, a medium was removed and then T. gondii […] tachyzoites, suspended in culture medium supplemented with 0.9–125.00 μg/ml diaminotriazines 4a–l and as a control-sulfadiazine (5.0–2500.0 μg/ml), were added (2 × 10^5 tachyzoites/200 µl/well) to the cell monolayers. After subsequent 48 h incubation 1 µCi/well of [^3H] uracil (Moravek Biochemicals Inc., Brea, CA, USA) was applied to each microculture for further 18–20 h. The amount of the isotope incorporated into the parasite nucleic acid pool, corresponding to the parasite growth, was measured by liquid scintillation counting with 1450 Microbeta Plus Liquid Scintillation Counter (Wallac Oy, Turku, Finland). The cpms of host cells alone (below 250/microculture) were subtracted from cpms of T. gondii infected microcultures (Dzitko et al. [2014]).
# [2] = tested on: VERO cells; experiment: Cell viability assay (MTT), VERO; assay type: cell-based, Cercopithecus aethiops; conditions: 24 h; for CC30 VERO: concentration for 30% proliferation inhibition
# Description: as §1, §2
# (§3) The effects of tested compounds on the viability of mouse fibroblasts L929 and […] VERO cells were evaluated using the MTT assay. The MTT assay was used according to international standards: ISO 10993-5:2009 (Tests for in vitro cytotoxicity; http://www.iso.org/iso/catalogue_detail.htm? csnumber = 36406). L929 and VERO cells were plated into 96-well plates at a density of 1.0 × 10^4/100 μl/well in culture medium and allowed to attach for 24 h before treatment. Afterwards, culture medium in the plates was replaced by 100 μl compounds suspension at concentration of 0–125 μg/ml and the cells were exposed for 24 h. Then 1 mg/ml MTT (50 μl/well) was added to each well and incubated at 37 °C, 10 % CO2 for 2 h. Mitochondrial dehydrogenases of viable cells reduce the yellowish water-soluble MTT to water-insoluble formazan crystals, which were solubilized with dimethyl sulfoxide (DMSO). The cell culture medium was aspirated cautiously, after which 150 μl DMSO was added to each well and mixed thoroughly. Optical density (OD) was read on the ELISA reader (Multiskan EX, Labsystems; http://www.mtxlsi.com/multiskan_EX.htm) at 550 nm. The results were expressed as percentage viability compared with the treated 2.5% DMSO controls. All experiments were performed in triplicate.
# [3] = tested on: mouse L929 fibroblast; experiment: Cell viability assay (MTT), L929; assay type: cell-based; conditions: 24 h; for CC30 L929: concentration for 30% proliferation inhibition
# Description: as §1, §2, §3
SMILES,activity at 0.9 µg/mL ([1]; 0.9 µg/ml) [%],activity at 1.8 µg/mL ([1]; 1.8 µg/ml) [%],activity at 3.9 µg/mL ([1]; 3.9 µg/ml) [%],activity at 7.8 µg/mL ([1]; 7.8 µg/ml) [%],activity at 15.6 µg/mL ([1]; 15.6 µg/ml) [%],activity at 31.2 µg/mL ([1]; 31.2 µg/ml) [%],IC50 [1] [µg/mL],CC30 VERO [2] [µg/mL],CC30 L929 [3] [µg/mL],T. gondii intracellular proliferation ([1]; 0.9 µg/ml) [%],T. gondii intracellular proliferation ([1]; 1.8 µg/ml) [%],T. gondii intracellular proliferation ([1]; 3.9 µg/ml) [%],T. gondii intracellular proliferation ([1]; 7.8 µg/ml) [%],T. gondii intracellular proliferation ([1]; 15.6 µg/ml) [%],T. gondii intracellular proliferation ([1]; 31.2 µg/ml) [%],T. gondii intracellular proliferation ([1]; 62.5 µg/ml) [%],T. gondii intracellular proliferation ([1]; 125.0 µg/ml) [%],IC50 (50% inhibition of T. gondii proliferation in vitro) [1] [µg/mL],Viability VERO ([2]; 0.9 µg/ml) [%],Viability VERO ([2]; 1.8 µg/ml) [%],other results
"C/C(=N\Nc1nc(-c2ccc(Br)cc2)cs1)c1ccc(Nc2nc(N)nc(N)n2)cc1 [Compound 4d, (E)-N^2-(4-(1-(2-(4-(4-bromophenyl)-1,3-thiazol-2-yl)hydrazinylidene)ethyl)phenyl)-1,3,5-triazine-2,4,6-triamine]",102,104,102,106,75.2,62.8,37.8,>125.0,>125.0,,,,,,,,,,,,activity at 62.5 µg/mL ([1]; 62.5 µg/ml): 29.3%; activity at 125 µg/mL ([1]; 125.0 µg/ml): 15.1%
"C/C(=N\Nc1nc(-c2cc3ccccc3oc2=O)cs1)c1ccc(Nc2nc(N)nc(N)n2)cc1 [Compound 4f, (E)-3-(2-(2-(1-(4-(4,6-diamino-1,3,5-triazin-2-yloamino)phenyl)ethylidene)hydrazinyl)thiazol-4-yl)-2H-chromen-2-on]",,,,,,,,>125.0,>125.0,101.02,98.89,75.89,64.30,55.65,50.52,37.17,14.03,21.53,97.81,100.84,Viability VERO ([2]; 3.9 µg/ml): 104.30%; Viability VERO ([2]; 7.8 µg/ml): 104.39%; Viability VERO ([2]; 15.6 µg/ml): 108.19%; Viability VERO ([2]; 31.2 µg/ml): 117.52%; Viability VERO ([2]; 62.5 µg/ml): 103.77%; Viability VERO ([2]; 125.0 µg/ml): 111.27%; Viability L929 ([3]; 0.9 µg/ml): 98.99%; Viability L929 ([3]; 1.8 µg/ml): 102.21%; Viability L929 ([3]; 3.9 µg/ml): 101.95%; Viability L929 ([3]; 7.8 µg/ml): 96.25%; Viability L929 ([3]; 15.6 µg/ml): 100.89%; Viability L929 ([3]; 31.2 µg/ml): 104.60%; Viability L929 ([3]; 62.5 µg/ml): 109.54%; Viability L929 ([3]; 125.0 µg/ml): 108.66%
"CC(=O)Nc1ccc(-c2csc(N/N=C(\C)c3ccc(Nc4nc(N)nc(N)n4)cc3)n2)cc1 [Compound 4g, (E)-N^2-(4-(2-(2-(1-(4-(4,6-diamino-1,3,5-triazin-2-yloamino)phenyl)ethylidene)hydraziny)thiazol-4-yl)phenyl)-acetamide]",,,,,,,,>125.0,>125.0,100.01,100.69,69.35,66.62,46.71,42.95,41.74,19.11,18.70,93.72,90.59,Viability VERO ([2]; 3.9 µg/ml): 95.35%; Viability VERO ([2]; 7.8 µg/ml): 98.14%; Viability VERO ([2]; 15.6 µg/ml): 98.43%; Viability VERO ([2]; 31.2 µg/ml): 98.96%; Viability VERO ([2]; 62.5 µg/ml): 94.25%; Viability VERO ([2]; 125.0 µg/ml): 91.41%; Viability L929 ([3]; 0.9 µg/ml): 102.34%; Viability L929 ([3]; 1.8 µg/ml): 102.12%; Viability L929 ([3]; 3.9 µg/ml): 100.36%; Viability L929 ([3]; 7.8 µg/ml): 98.86%; Viability L929 ([3]; 15.6 µg/ml): 94.31%; Viability L929 ([3]; 31.2 µg/ml): 99.83%; Viability L929 ([3]; 62.5 µg/ml): 103.01%; Viability L929 ([3]; 125.0 µg/ml): 105.39%
"C/C(=N\Nc1nc(-c2ccc(NS(C)(=O)=O)cc2)cs1)c1ccc(Nc2nc(N)nc(N)n2)cc1 [Compound 4j, (E)-N-(4-(2-(2-(1-(4-(4,6-diamino-1,3,5-triazin-2-yloamino)phenyl)ethylidene)hydrazinyl)thiazol-4-yl)phenyl)-methanesulfonamide]",,,,,,,,>125.0,>125.0,99.93,100.25,99.58,89.65,78.25,67.01,46.07,34.60,59.87,79.82,93.81,Viability VERO ([2]; 3.9 µg/ml): 93.62%; Viability VERO ([2]; 7.8 µg/ml): 89.25%; Viability VERO ([2]; 15.6 µg/ml): 90.98%; Viability VERO ([2]; 31.2 µg/ml): 96.22%; Viability VERO ([2]; 62.5 µg/ml): 97.76%; Viability VERO ([2]; 125.0 µg/ml): 89.44%; Viability L929 ([3]; 0.9 µg/ml): 98.90%; Viability L929 ([3]; 1.8 µg/ml): 106.36%; Viability L929 ([3]; 3.9 µg/ml): 104.20%; Viability L929 ([3]; 7.8 µg/ml): 101.86%; Viability L929 ([3]; 15.6 µg/ml): 100.71%; Viability L929 ([3]; 31.2 µg/ml): 104.07%; Viability L929 ([3]; 62.5 µg/ml): 102.92%; Viability L929 ([3]; 125.0 µg/ml): 106.67%
"C/C(=N\Nc1nc(-c2ccc(I)cc2)cs1)c1ccc(Nc2nc(N)nc(N)n2)cc1 [Compound 4e, (E)-N^2-(4-(1-(2-(4-(4-iodophenyl)-1,3-thiazol-2-yl)hydrazinylidene)ethyl)phenyl)-1,3,5-triazine-2,4,6-triamine]",103,104,99.9,92.8,80.7,75.1,49.2,>125.0,>125.0,,,,,,,,,,,,activity at 62.5 µg/mL ([1]; 62.5 µg/ml): 48.7%; activity at 125 µg/mL ([1]; 125.0 µg/ml): 14.6%
"C/C(=N\Nc1nc(-c2ccc(Cl)c(Cl)c2)cs1)c1ccc(Nc2nc(N)nc(N)n2)cc1 [Compound 4i, (E)-N^2-(4-(1-(2-(4-(3,4-dichlorophenyl)-1,3-thiazol-2-yl)hydrazinylidene)ethyl)phenyl)-1,3,5-triazine-2,4,6-triamine]",101,102,79,55.9,45.7,41.1,14.9,>62.5,>62.5,,,,,,,,,,,,
